Read-outs that look alike come from different tables or passages of the source.
Legend:
ZF4 and ZFL cell lines = test: Cytotoxicity assays, all endpoints, both cell lines (mean/range); format: cell-based, zebrafish (Danio rerio); details: 48 h
[1] = tested on: ZFL (hepatocytes) cell line; test: cells; format: cell-based, zebrafish (Danio rerio); details: Danio rerio, Hepatocyte
[2] = tested on: ZF4 (fibroblasts) cell line; test: Neutral red, absorbance (NRa), AB/CFDA/NR multiplex, lysosome stability; format: cell-based, zebrafish (Danio rerio); details: Danio rerio, Fibroblast
[3] = tested on: ZFL (hepatocytes) cell line; test: cells; format: cell-based, zebrafish (Danio rerio); details: Danio rerio, Hepatocyte; remark: listed apart in the source
zebrafish embryos [4] = tested on: zebrafish embryos; parameters: method as in earlier work; details: nominal, cited from earlier work
zebrafish embryos [5] = test: animal or person; format: in vivo, zebrafish (Danio rerio); details: for EC50: Danio rerio
[6] = tested on: ZFL (hepatocytes) cell line; test: cells; format: cell-based, zebrafish (Danio rerio); details: Danio rerio, Hepatocyte; remark: listed apart in the source
[7] = tested on: ZF4 (fibroblasts) cell line; test: MTS assay (MTS/BCA multiplex), NAD(P)H metabolism; format: cell-based, zebrafish (Danio rerio); details: Danio rerio, Fibroblast
[8] = ref Comptox, PubChem or DrugBank; cited from earlier work
[9] = tested on: ZF4 (fibroblasts) cell line; test: Neutral red, fluorescence (NRf), AB/CFDA/NR multiplex, lysosome stability; format: cell-based, zebrafish (Danio rerio); details: Danio rerio, Fibroblast
[10] = tested on: diverse mammalian cell assay results; parameters: method as in https://comptox.epa.gov/dashboard/; details: COMPTOX; ref https://comptox.epa.gov/dashboard/; read-out: median AC50; cited from earlier work
[11] = tested on: ZF4 (fibroblasts) cell line; test: CFDA endpoint of AB/CFDA/NR multiplex, membrane stability; format: cell-based, zebrafish (Danio rerio); details: Danio rerio, Fibroblast
[12] = tested on: ZF4 (fibroblasts) cell line; test: BCA assay (MTS/BCA multiplex), protein amount; format: cell-based, zebrafish (Danio rerio); details: Danio rerio, Fibroblast
[13] = tested on: ZFL (hepatocytes) cell line; test: cells; format: cell-based, zebrafish (Danio rerio); details: Danio rerio, Hepatocyte; remark: listed apart in the source
[14] = tested on: ZFL (hepatocytes) cell line; test: cells; format: cell-based, zebrafish (Danio rerio); details: Danio rerio, Hepatocyte; remark: listed apart in the source
[15] = tested on: ZFL (hepatocytes) cell line; test: cells; format: cell-based, zebrafish (Danio rerio); details: Danio rerio, Hepatocyte; remark: listed apart in the source
[16] = tested on: ZF4 (fibroblasts) cell line; test: ATP assay (ATP/LDH multiplex), ATP metabolism; format: cell-based, zebrafish (Danio rerio); details: Danio rerio, Fibroblast
[17] = tested on: ZFL (hepatocytes) cell line; test: cells; format: cell-based, zebrafish (Danio rerio); details: Danio rerio, Hepatocyte; remark: listed apart in the source
[18] = tested on: ZF4 (fibroblasts) cell line; test: alamarBlue (AB) endpoint of AB/CFDA/NR multiplex, cellular respiration; format: cell-based, zebrafish (Danio rerio); details: Danio rerio, Fibroblast

What does the source list for `CCCSc1ccc2nc(NC(=O)OC)[nH]c2c1` [Albendazole, albendazole]?
IC50 (ZF4 and ZFL cell lines; Danio rerio, read-out: Mean log IC50nom, mean of all cytotoxicity endpoints (without LDH) in ZF4 and ZFL, 48 h, log10 (converted)): 2510 nM; Mean log IC50nom (ZF4 and ZFL cell lines; mean of all cytotoxicity endpoints (without LDH) in ZF4 and ZFL, log10, listed as Abz): -5.604 M; IC50 ([1]; MTS - ZFL, log10 of IC50, read-out: LogIC50 (converted)): 418 nM; IC50 ([1]; MTS - ZFL, read-out: IC50): 418 nM; IC50 ([1]; ZFL, 48 h exposure, nominal, log10, read-out: logIC50 (log10 IC50;nom) MTS (converted)): 417 nM; IC50 ([1]; ZFL, 48 h exposure, nominal, read-out: IC50;nom MTS): 418 nM; IC50 ([2]; NR-abs - ZF4, log10 of IC50, read-out: LogIC50 (converted)): 2360 nM; IC50 ([2]; NR-abs - ZF4, read-out: IC50): 2360 nM; IC50 ([2]; ZF4, 48 h exposure, nominal, log10, read-out: logIC50 (log10 IC50;nom) NRa (converted)): 2340 nM; IC50 ([2]; ZF4, 48 h exposure, nominal, read-out: IC50;nom NRa): 2360 nM; IC50 ([2]; ZF4 cell line, NRa endpoint, nominal, read-out: IC50;nom): 0.63 µg/mL; IC50 ([3]; NR-abs - ZFL, log10 of IC50, read-out: LogIC50 (converted)): 904 nM; IC50 ([3]; NR-abs - ZFL, read-out: IC50): 904 nM; IC50 ([3]; ZFL, 48 h exposure, nominal, log10, read-out: logIC50 (log10 IC50;nom) NRa (converted)): 912 nM; IC50 ([3]; ZFL, 48 h exposure, nominal, read-out: IC50;nom NRa): 904 nM; EC50 (zebrafish embryos [4]; 144 hpf, converted): 158 nM; logEC50 144 hpf (zebrafish embryos [4]; log10): -6.8 M; difference in toxicity (EC50;nom) between 48 hpf and 144 hpf (zebrafish embryos [5]; 48 hpf time point less sensitive than 144 hpf): approximately the same; log EC50;nom (mFET) (zebrafish embryos [5]; 48 hpf, nominal, log10, listed as Abz): -6.783 M; EC50 (zebrafish embryos [5]; 48 hpf, nominal, log10, read-out: log EC50;nom (mFET) (converted)): 166 nM; EC50 (zebrafish embryos [5]; 48 hpf, nominal, read-out: EC50;nom (embryo)): 0.05 µg/mL; EC50 (zebrafish embryos [5]; read-out: EC50 48hpf): 165 nM; EC50 (zebrafish embryos [5]; read-out: EC50;nom (mFET)): 165 nM; IC50 ([6]; BCA - ZFL, log10 of IC50, read-out: LogIC50 (converted)): 30.9 nM; IC50 ([6]; BCA - ZFL, read-out: IC50): 30.9 nM; IC50 ([6]; ZFL, 48 h exposure, nominal, log10, read-out: logIC50 (log10 IC50;nom) BCA (converted)): 30.9 nM; IC50 ([6]; ZFL, 48 h exposure, nominal, read-out: IC50;nom BCA): 30.9 nM; IC50 ([7]; MTS - ZF4, log10 of IC50, read-out: LogIC50 (converted)): 10100 nM; IC50 ([7]; MTS - ZF4, read-out: IC50): 10100 nM; IC50 ([7]; ZF4, 48 h exposure, nominal, log10, read-out: logIC50 (log10 IC50;nom) MTS (converted)): 10000 nM; IC50 ([7]; ZF4, 48 h exposure, nominal, read-out: IC50;nom MTS): 10100 nM; BCF [8]: 41.2; Physiological charge [8]: 0; logKoa [8]: 9.35; logKow [8]: 3.07; pKa (Strongest Acidic) [8]: 9.51; pKa (Strongest Basic) [8]: 4.27; w_solubility (water solubility) [8]: 85.2 µM; IC50 ([9]; NR-fluo - ZF4, log10 of IC50, read-out: LogIC50 (converted)): 3610 nM; IC50 ([9]; NR-fluo - ZF4, read-out: IC50): 3610 nM; IC50 ([9]; ZF4, 48 h exposure, nominal, log10, read-out: logIC50 (log10 IC50;nom) NRf (converted)): 3630 nM; IC50 ([9]; ZF4, 48 h exposure, nominal, read-out: IC50;nom NRf): 3610 nM; AC50 [10]: 410 nM; IC50 ([11]; CFDA - ZF4, log10 of IC50, read-out: LogIC50 (converted)): 75400 nM; IC50 ([11]; CFDA - ZF4, read-out: IC50): 75400 nM; IC50 ([11]; ZF4, 48 h exposure, nominal, log10, read-out: logIC50 (log10 IC50;nom) CFDA (converted)): 75900 nM; IC50 ([11]; ZF4, 48 h exposure, nominal, read-out: IC50;nom CFDA): 75400 nM; IC50 ([12]; BCA - ZF4, log10 of IC50, read-out: LogIC50 (converted)): 555 nM; IC50 ([12]; BCA - ZF4, read-out: IC50): 555 nM; IC50 ([12]; ZF4, 48 h exposure, nominal, log10, read-out: logIC50 (log10 IC50;nom) BCA (converted)): 550 nM; IC50 ([12]; ZF4, 48 h exposure, nominal, read-out: IC50;nom BCA): 555 nM; IC50 ([13]; CFDA - ZFL, log10 of IC50, read-out: LogIC50 (converted)): 221000 nM; IC50 ([13]; CFDA - ZFL, read-out: IC50): 221000 nM; IC50 ([13]; ZFL, 48 h exposure, nominal, log10, read-out: logIC50 (log10 IC50;nom) CFDA (converted)): 219000 nM; IC50 ([13]; ZFL, 48 h exposure, nominal, read-out: IC50;nom CFDA): 221000 nM; IC50 ([14]; NR-fluo - ZFL, log10 of IC50, read-out: LogIC50 (converted)): 724 nM; IC50 ([14]; NR-fluo - ZFL, read-out: IC50): 724 nM; IC50 ([14]; ZFL, 48 h exposure, nominal, log10, read-out: logIC50 (log10 IC50;nom) NRf (converted)): 724 nM; IC50 ([14]; ZFL, 48 h exposure, nominal, read-out: IC50;nom NRf): 724 nM; IC50 ([15]; AB - ZFL, log10 of IC50, read-out: LogIC50 (converted)): 3720 nM; IC50 ([15]; AB - ZFL, read-out: IC50): 3720 nM; IC50 ([15]; ZFL, 48 h exposure, nominal, log10, read-out: logIC50 (log10 IC50;nom) AB (converted)): 3720 nM; IC50 ([15]; ZFL, 48 h exposure, nominal, read-out: IC50;nom AB): 3720 nM; IC50 ([16]; ATP - ZF4, log10 of IC50, read-out: LogIC50 (converted)): 3250 nM; IC50 ([16]; ATP - ZF4, read-out: IC50): 3250 nM; IC50 ([16]; ZF4, 48 h exposure, nominal, log10, read-out: logIC50 (log10 IC50;nom) ATP (converted)): 3240 nM; IC50 ([16]; ZF4, 48 h exposure, nominal, read-out: IC50;nom ATP): 3250 nM; IC50 ([17]; ATP - ZFL, log10 of IC50, read-out: LogIC50 (converted)): 542 nM; IC50 ([17]; ATP - ZFL, read-out: IC50): 542 nM; IC50 ([17]; ZFL, 48 h exposure, nominal, log10, read-out: logIC50 (log10 IC50;nom) ATP (converted)): 537 nM; IC50 ([17]; ZFL, 48 h exposure, nominal, read-out: IC50;nom ATP): 542 nM; IC50 ([18]; AB - ZF4, log10 of IC50, read-out: LogIC50 (converted)): 7790 nM; IC50 ([18]; AB - ZF4, read-out: IC50): 7790 nM; IC50 ([18]; ZF4, 48 h exposure, nominal, log10, read-out: logIC50 (log10 IC50;nom) AB (converted)): 7760 nM; IC50 ([18]; ZF4, 48 h exposure, nominal, read-out: IC50;nom AB): 7790 nM
